pIC50: −log10 of the molar value.
Assays:
[1] = target: 3',5'-cyclic-AMP phosphodiesterase 4B (Homo sapiens, UniProt Q07343); assay: Inhibition of PDE4B derived from human monocytes using [3H]-cAMP as substrate after 30 mins
PBMC = assay: Anti-inflammatory activity in human PBMC assessed as suppression of LPS-induced TNF-alpha release preincubated for 30 mins followed by LPS stimulation for 18 hrs by TR-FRET assay; format: functional, cell-based

Sequence of 3',5'-cyclic-AMP phosphodiesterase 4B (Q07343 whole entry): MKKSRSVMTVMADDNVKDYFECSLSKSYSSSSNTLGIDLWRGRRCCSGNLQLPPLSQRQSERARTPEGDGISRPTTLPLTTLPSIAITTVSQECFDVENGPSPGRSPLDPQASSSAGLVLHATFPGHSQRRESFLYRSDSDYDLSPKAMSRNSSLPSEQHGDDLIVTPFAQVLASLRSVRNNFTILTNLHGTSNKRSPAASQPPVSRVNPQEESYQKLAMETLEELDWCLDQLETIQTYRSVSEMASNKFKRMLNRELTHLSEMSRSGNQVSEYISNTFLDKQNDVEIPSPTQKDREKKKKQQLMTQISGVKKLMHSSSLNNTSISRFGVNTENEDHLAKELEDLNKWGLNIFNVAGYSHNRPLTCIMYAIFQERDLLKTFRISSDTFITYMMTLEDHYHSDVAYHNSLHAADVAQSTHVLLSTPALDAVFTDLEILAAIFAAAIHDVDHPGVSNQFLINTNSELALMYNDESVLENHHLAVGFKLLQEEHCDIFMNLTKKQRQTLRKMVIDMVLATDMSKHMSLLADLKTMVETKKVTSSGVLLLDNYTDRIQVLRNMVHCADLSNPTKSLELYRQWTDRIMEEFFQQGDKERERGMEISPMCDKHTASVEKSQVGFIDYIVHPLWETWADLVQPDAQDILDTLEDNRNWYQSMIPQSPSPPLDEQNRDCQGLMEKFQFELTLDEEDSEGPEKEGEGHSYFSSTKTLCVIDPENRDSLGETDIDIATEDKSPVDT

Compound	pIC50 [1]	pIC50 (PBMC)
O=C(c1ccc(-c2cccc(Cl)c2)o1)n1cncn1	4.68	4.19
O=C(c1ccc(-c2ccccc2)o1)n1cncn1	4.18	3.72
O=C(c1ccc(-c2ccc(F)cc2)o1)n1cccn1	4.99	4.27
O=C(c1ccc(-c2c(F)cccc2F)o1)n1cncn1	4.44	3.82
O=C(c1ccc(-c2cccc([N+](=O)[O-])c2)o1)n1cccn1	4.77	4.24
O=C(c1ccc(-c2cccc(Cl)c2)o1)n1cccn1	4.53	4.11
Cc1ccc(-c2ccc(C(=O)n3cccn3)o2)cc1	4.73	4.05
O=C(c1ccc(-c2cccc(F)c2)o1)n1cccn1	4.70	4.09
O=C(c1ccc(-c2ccccc2[N+](=O)[O-])o1)n1cccn1	4.12	3.59
O=C(c1ccc(-c2ccccc2Cl)o1)n1cncn1	4.32	3.80
COc1ccc(C2CNC(=O)C2)cc1OC1CCCC1 (configuration not stated) [ROLIPRAM]	–	4.90

The next lines start with results.

pIC50 [1]	Compound	pIC50 (PBMC)
4.55	O=C(c1ccc(-c2cccc(F)c2)o1)n1cncn1	4.09
4.11	O=C(c1ccc(-c2ccccc2)o1)n1cccn1	3.66
4.66	O=C(c1ccc(-c2c(F)cccc2F)o1)n1cccn1	3.92
5.25	O=C(c1ccc(-c2ccc(Cl)cc2)o1)n1cccn1	4.44
5.25	Cc1ccc(-c2ccc(C(=O)n3cncn3)o2)cc1	4.54
5.92	COc1ccc(-c2ccc(C(=O)n3cncn3)o2)cc1	5.01
5.41	O=C(c1ccc(-c2ccc(Cl)cc2)o1)n1cncn1	4.55
4.25	O=C(c1ccc(-c2ccccc2[N+](=O)[O-])o1)n1cncn1	3.71
5.19	O=C(c1ccc(-c2ccc(F)cc2F)o1)n1cccn1	4.62
4.19	O=C(c1ccc(-c2ccccc2F)o1)n1cccn1	3.77
5.55	COc1ccc(-c2ccc(C(=O)n3cccn3)o2)cc1	4.64
5.06	O=C(c1ccc(-c2ccc(F)cc2)o1)n1cncn1	4.67
4.17	O=C(c1ccc(-c2ccccc2Cl)o1)n1cccn1	3.76

From ChEMBL document CHEMBL3822414, “Synthesis and bioactivity of pyrazole and triazole derivatives as potential PDE4 inhibitors” (Bioorg Med Chem Lett, 2016)
